Measurements published in patent US9643967B2, “Pyrrolo[3,2-c]pyridine derivatives as TLR inhibitors” (TAKEDA PHARMACEUTICAL COMPANY LIMITED, priority 2013, dated 2017).
Like-named read-outs stand apart in the source and are kept apart here.

Legend:
[1] = molecular target: T1, mTLR9 (Mus musculus, UniProt Q9EQU3); experiment: mTLR9 antagonism (IL-6 and TNF-α release assay) in mouse splenocytes, CpG ODN-2006 stimulated; type: cell-based; conditions: 1 μM, mouse splenocytes
T1 construct: Splenocytes isolated from male C57/BL6 mice; from tissue; host or cells: splenocytes from the spleen of male C57BL/6 mice
T1 sequence (Q9EQU3 26-1032): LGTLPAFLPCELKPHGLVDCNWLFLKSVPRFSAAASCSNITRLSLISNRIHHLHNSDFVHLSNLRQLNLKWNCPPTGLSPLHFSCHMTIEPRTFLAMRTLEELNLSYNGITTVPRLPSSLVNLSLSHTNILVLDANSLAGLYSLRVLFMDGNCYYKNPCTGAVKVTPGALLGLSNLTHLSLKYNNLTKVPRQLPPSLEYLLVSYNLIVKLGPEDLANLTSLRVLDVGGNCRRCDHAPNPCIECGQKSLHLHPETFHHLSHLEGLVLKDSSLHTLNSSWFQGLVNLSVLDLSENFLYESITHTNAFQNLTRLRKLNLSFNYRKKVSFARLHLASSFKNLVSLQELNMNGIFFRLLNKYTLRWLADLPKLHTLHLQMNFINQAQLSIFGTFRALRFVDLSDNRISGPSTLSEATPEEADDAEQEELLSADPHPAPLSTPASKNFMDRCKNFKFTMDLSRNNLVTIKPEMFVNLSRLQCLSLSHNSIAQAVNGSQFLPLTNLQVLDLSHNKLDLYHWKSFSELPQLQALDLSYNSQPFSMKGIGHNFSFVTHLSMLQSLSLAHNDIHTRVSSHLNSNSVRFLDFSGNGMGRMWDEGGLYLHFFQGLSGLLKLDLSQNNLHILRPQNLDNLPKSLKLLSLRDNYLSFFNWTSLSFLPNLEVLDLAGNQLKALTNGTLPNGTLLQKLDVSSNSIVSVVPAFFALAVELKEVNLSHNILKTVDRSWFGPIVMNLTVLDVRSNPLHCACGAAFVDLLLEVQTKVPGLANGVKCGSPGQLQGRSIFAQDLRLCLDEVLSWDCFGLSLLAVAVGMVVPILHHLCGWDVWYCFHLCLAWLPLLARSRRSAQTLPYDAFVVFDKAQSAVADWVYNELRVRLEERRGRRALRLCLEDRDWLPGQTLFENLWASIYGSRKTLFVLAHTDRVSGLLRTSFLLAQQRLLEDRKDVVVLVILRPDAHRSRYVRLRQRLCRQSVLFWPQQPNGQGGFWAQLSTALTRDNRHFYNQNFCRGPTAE
Outline: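 C57BL6 mouse splenocytes (0.2 million/well) pre-incubated 30 min at 37 °C with compounds (30 μM–1 nM, 0.3% DMSO), then stimulated with 1 μg/ml CpG ODN-2006 overnight at 37 °C/5% CO2. IL-6 and TNF-α in supernatant measured by ELISA; IC50 from % inhibition curves.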

[2] = system: lupus-prone MRL lpr/lpr mice; experiment: Mouse lupus disease model, anti-dsDNA IgG titers (ELISA); type: in vivo; conditions: female MRL/lpr mice; for mean anti-dsDNA IgG titers after 6 weeks of treatment: oral QD, 3, 10 and 30 mg/kg
Description: Mouse Lupus Disease Model
Examples B6 and B11 were tested in well studied mouse model of lupus, lupus-prone MRL lpr/lpr mice that develop disease similar to human SLE [J Exp Med., 1978, 148 (5), 1198-1215]. These mice develop spontaneous systemic autoimmunity with both molecular (IFN signature) and clinical (autoantibody production and glomerulonephritis) features similar to human SLE. Anti-dsDNA antibodies are correlated with human SLE and the reduction in anti-dsDNA antibodies is believed to be of potential clinical benefit. Positive TLR7 and/or TLR9 target validation results have been reported for this disease model.
Mouse Lupus Disease Model Strain:
Female MRL/lpr mice were purchased from Jackson Laboratories (USA) which manifest spontaneous lupus disease. Female MRL/lpr mice were treated for 9 weeks by oral route once a day with TLR-7/9 antagonists [Examples B6 and B11] at 3, 10 and 30 mg/kg doses. Prednisolone (2 mg/kg, P.O., QD) was used as a positive control during the studies. At the end of treatment period, animals were sacrificed and blood samples were collected to estimate anti-dsDNA IgG titers using anti-dsDNA IgG ELISA kit, Alpha Diagnostics, USA.

[3] = IL-6 release, read-out: mTLR9 inhibitory activity (% at 1 μM), IL-6
[4] = TNF-α release, read-out: mTLR9 inhibitory activity (% at 1 μM), TNF-α

Structure (SMILES) | inhibition at 1 µM [1, 3] | inhibition at 1 µM [1, 4] | anti-dsDNA IgG after 9 weeks of treatment ([2]; 10 mg/kg once daily oral, 9 weeks, 10 mg/kg) | mean anti-dsDNA IgG titers after 6 weeks of treatment [2]
Cc1nc(-c2ccc(N3CCN(C(C)C)CC3)cc2)c2cc(CCN3CCOCC3)[nH]c2c1C [Example B6, 4-[2-[4-[4-(4-isopropylpiperazin-1-yl)phenyl]-6,7-dimethyl-1H-pyrrolo[3,2-c]pyridin-2-yl]ethyl]morpholine] | 100% | 100% | Significant reduction | trend towards dose dependent reduction
Cc1cc2c(cc(CCN3CCOCC3)n2C)c(-c2ccc(N3CCN(C(C)C)CC3)cc2)n1 [Example B11, 4-[2-[4-[4-(4-isopropylpiperazin-1-yl)phenyl]-1,6-dimethyl-pyrrolo[3,2-c]pyridin-2-yl]ethyl]morpholine] | 100% | 100% |  | dose dependent reduction
